# Columns and labels:
# TF/FVIIa = biological target: T1, TF/FVIIa (Homo sapiens, UniProt P08709); assay: TF/factor VIIa inhibition (TF/FVIIa-IC50, pharmacological data); format: biochemical
# T1 construct: Coagulation factor VIIa initiates the extrinsic part of the coagulation cascade
# Source text: The inhibition of factor VIIa by the compounds according to the invention and the measurement of the anticoagulant and antithrombotic activity can be determined by conventional in-vitro or in-vivo methods. A conventional method for the measurement of the inhibition of factor VIIa is described, for example, by H. F. Ronning et al. in Thrombosis Research 1996, 84, 73-81.
# FXa = FXa (Homo sapiens, UniProt P00742); assay: Factor Xa inhibition (FXa-IC50, pharmacological data); format: biochemical
# Chain of FXa (P00742 235-488 limits assumed): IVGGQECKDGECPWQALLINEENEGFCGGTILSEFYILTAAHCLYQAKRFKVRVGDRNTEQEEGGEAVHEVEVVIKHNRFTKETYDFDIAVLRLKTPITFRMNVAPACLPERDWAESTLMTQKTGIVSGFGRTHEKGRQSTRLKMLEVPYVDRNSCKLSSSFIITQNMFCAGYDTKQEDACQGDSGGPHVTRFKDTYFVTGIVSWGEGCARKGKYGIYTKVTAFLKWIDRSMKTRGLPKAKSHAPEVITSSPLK
# Chain of FXa (P00742 41-179 limits assumed): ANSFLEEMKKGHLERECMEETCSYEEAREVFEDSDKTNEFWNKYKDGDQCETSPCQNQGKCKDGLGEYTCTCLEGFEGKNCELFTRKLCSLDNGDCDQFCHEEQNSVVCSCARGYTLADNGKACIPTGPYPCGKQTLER
# Source text: The inhibition of factor Xa by the compounds according to the invention and the measurement of the anticoagulant and antithrombotic activity can be determined by conventional in-vitro or in-vivo methods. A suitable method is described, for example, by J. Hauptmann et al. in Thrombosis and Haemostasis 1990, 63, 220-223.
# The inhibition of factor Xa can be measured, for example by the method of T. Hara et al. in Thromb. Haemostas. 1994, 71, 314-319.
# T1 sequence (P08709 213-466 limits assumed): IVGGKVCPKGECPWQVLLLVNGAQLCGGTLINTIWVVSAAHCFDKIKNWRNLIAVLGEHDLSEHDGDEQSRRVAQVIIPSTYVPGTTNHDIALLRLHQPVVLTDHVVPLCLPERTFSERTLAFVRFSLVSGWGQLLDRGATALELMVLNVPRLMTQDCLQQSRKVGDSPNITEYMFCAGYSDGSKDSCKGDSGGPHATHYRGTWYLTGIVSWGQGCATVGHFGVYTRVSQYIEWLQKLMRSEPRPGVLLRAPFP
# T1 sequence (P08709 61-212 limits assumed): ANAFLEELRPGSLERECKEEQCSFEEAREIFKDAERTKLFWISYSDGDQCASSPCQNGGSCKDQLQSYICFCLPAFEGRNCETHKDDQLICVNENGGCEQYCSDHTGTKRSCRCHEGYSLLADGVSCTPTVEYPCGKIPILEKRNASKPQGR
# T1 sequence (P13726 33-295 partner): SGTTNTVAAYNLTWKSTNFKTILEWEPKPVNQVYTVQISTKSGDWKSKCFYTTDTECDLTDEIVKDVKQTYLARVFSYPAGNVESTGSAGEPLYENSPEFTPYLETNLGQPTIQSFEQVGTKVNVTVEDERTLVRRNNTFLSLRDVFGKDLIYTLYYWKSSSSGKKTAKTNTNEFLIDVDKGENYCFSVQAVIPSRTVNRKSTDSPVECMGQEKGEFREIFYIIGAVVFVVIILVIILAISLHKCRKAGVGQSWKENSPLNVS
melting point [°C],IC50 (TF/FVIIa) [nM],IC50 (FXa) [nM],SMILES
182,88,25,"C#Cc1ccc(NC(=O)N[C@H](CCC)C(=O)Nc2ccc(N3CCOCC3=O)cc2)cc1 [AA, (R)-2-[3-(4-ethynylphenyl)ureido]-N-[4-(3-oxomorpholin-4-yl)-phenyl]valeramide]"
–,41,36,"C#Cc1ccc(NC(=O)N[C@H](CC(C)C)C(=O)Nc2ccc(N3CCOCC3=O)cc2)cc1 [AB, (R)-2-[3-(4-ethynylphenyl)ureido]-N-[4-(3-oxomorpholin-4-yl)phenyl]4-methylvaleramide]"
–,240,46,"C#Cc1ccc(NC(=O)N[C@H](CC(C)C)C(=O)Nc2ccc(N3CCNC3=N)cc2)cc1 [AC, (R)-2-[3-(4-ethynylphenyl)ureido]-N-[4-(2-iminoimidazolidin-1-yl)phenyl]4-methylvaleramide]"
–,33,42,C#Cc1ccc(NC(=O)N[C@H](CO)C(=O)Nc2ccc(N3CCOCC3=O)cc2)cc1 [Compound 5]
–,37,22,C#Cc1ccc(NC(=O)N[C@H](COC)C(=O)Nc2ccc(N3CCOCC3=O)cc2)cc1 [Compound 6]

# Reference: US20060084648A1, “Ethynyl derivatives as factor xa inhibitors” (Merck Patent GmbH, priority 2003, published 2006)
